Experimental data taken from patent US7919468B2, “Compounds useful as modulators of the proteasome activity” (Centre National de la Recherche Scientifique (C.N.R.S.), priority 2005, dated 2011).
Peptide text beside a SMILES is read from it. * marks the point of attachment. Boc = CC(C)(C)OC(=O)*; NHBn = c1ccc(CN*)cc1; Bn = c1ccc(C*)cc1

How the values were obtained:
Type in all cases: biochemical
[1] = tested on: rabbit 20S proteasome, trypsin-like (T-L) activity; test: Rabbit 20S proteasome fluorescent assay, trypsin-like activity (Boc-LLR-amc); conditions: [Compound]=100 μM, pH 7.5, 30° C.
Experimental: (§1) 20S proteasome from rabbit reticulocyte was from commercial source (Alexis Biochemicals)
(§2) Semi-automatic fluorescent assays using Suc-LLVY-amc (SEQ ID NO: 2) for chymotrypsin-like activity, Z-LLE-SNA for post-acid activity and Boc-LLR-amc for trypsin-like activity of proteasome were performed at pH 7.5 and 30° C. using BMG Fluostar microplate reader (Suc=succinyl; amc=7-amino-4-methylcoumarin; Z=benzyloxycarbonyl; NA=2-naphtylamine; Boc=tert-butoxycarbonyl). The buffers were: 20 mM Tris, 1 mM DTT, 10% glycerol, 3% (v/v) DMSO (ChT-L and PA activities); 20 mM Tris, 1 mM DTT, 10% glycerol, 3% (v/v) DMSO. Studied compounds were dissolved in DMSO prior dissolution in the buffer. Proteasome was incubated for 15 min at 30° C. in the presence of the studied compound (0.1-100 μM). A control assay in the absence of tested compounds contained DMSO at the same concentration (3%, v/v). The fluorogenic proteasome substrate was then added and the hydrolysis of the appropriate fluorescent substrate was monitored for 1 h (λexc=360, λem=465 nm for amc substrates and λexc=340, λem=405 nm for the βNA substrate). Initial rates determined in control experiments were considered to be 100% of the peptidasic activity; initial rates that were above 100% in the presence of a test compound were considered to be activations, while initial rates below 100% were considered to be inhibitions. For weak inhibitors, the percentage of inhibition at a reference concentration (100 μM) is reported. The results, expressed in % inhibition (or activation factor), were obtained by calculating the average of at least two independent experiments, the variability was less than 10%. The inhibitory activity of more efficient compounds are expressed as IC50 calculated by fitting the experimental data to the equation 1: % Inhibition=100 [I]0/(IC50+[I]0)=100 (v0−vi/v0), or equation 2: % Inhibition=100 [I]0^nH/(IC50^nH+[I]0^nH), nH is the Hill number. v0 and vi are the initial rates in the absence and in the presence of inhibitor. A Dixon plot has been used to determine the inhibition constant Ki for competitive inhibition by compound A215. The reversible character of inhibition or activation was determined by measuring the activity of treated enzyme after the inhibitor molecule has been withdrawn from the reaction medium.
(§3) Inhibition of Rabbit 20 S Proteasome (pH=7.5, 30° C.)
(§4) Activation of Rabbit 20 S Proteasome (pH=7.5, 30° C., [Compound]=100 μM)

[2] = target: T1, rabbit 20S proteasome, post-acid (PA) activity (Oryctolagus cuniculus, UniProt A0A5F9DQW2); test: Rabbit 20S proteasome fluorescent assay, post-acid activity (Z-LLE-βNA); conditions: pH 7.5, 30° C.; for PA % inhibition (at 100 μM): 100 μM compound
T1 construct: other: 100 μM compound, pH 7.5, 30° C; other: pH 7.5, 30° C
T1 sequence (A0A5F9DQW2 1-212): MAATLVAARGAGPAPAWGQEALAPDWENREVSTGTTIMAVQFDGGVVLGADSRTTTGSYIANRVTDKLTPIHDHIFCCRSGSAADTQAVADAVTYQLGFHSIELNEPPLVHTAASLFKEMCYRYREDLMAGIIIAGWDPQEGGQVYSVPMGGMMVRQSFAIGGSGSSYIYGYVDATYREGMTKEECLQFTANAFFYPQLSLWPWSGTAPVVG
Experimental: as §1, §2, §3, §4

[3] = target: T2, rabbit 20S proteasome, chymotrypsin-like (CT-L) activity (Oryctolagus cuniculus, UniProt G1T4Q9); test: Rabbit 20S proteasome fluorescent assay, chymotrypsin-like activity (Suc-LLVY-amc); conditions: pH 7.5, 30° C.; for inhibition at 100 µM: 100 μM compound
T2 construct: other: 100 μM compound, pH 7.5, 30° C; other: pH 7.5, 30° C; CT-L Ki
T2 sequence (G1T4Q9 1-263): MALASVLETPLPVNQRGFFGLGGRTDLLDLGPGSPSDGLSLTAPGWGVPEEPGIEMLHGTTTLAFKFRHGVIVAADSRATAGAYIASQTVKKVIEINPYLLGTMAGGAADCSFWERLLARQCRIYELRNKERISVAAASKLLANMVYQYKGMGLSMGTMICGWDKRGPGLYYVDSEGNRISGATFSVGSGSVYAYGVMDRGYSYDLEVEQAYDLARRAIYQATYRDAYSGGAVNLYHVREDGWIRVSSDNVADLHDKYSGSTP
Experimental: as §1, §2, §3, §4

SMILES | PA % inhibition (at 100 μM) [2] | inhibition at 100 µM [3] | IC50 [2] | IC50 [3] | T-L Activation factor [1]
CC(C)(C)OC(=O)N[C@@H](Cc1ccc(OCc2ccccc2)cc1)C(=O)NCC(=O)N[C@@H](Cc1c[nH]c2ccccc12)C(=O)O [NR35, N-Boc-Tyr(Bn)-Gly-Trp-OH] (Boc-Tyr(Bn)-Gly-Trp-OH) |  |  |  |  | 1.8
CC(C)C[C@H](NC(=O)[C@H](Cc1ccc(OCc2ccccc2)cc1)NC(=O)OC(C)(C)C)C(=O)N[C@@H](Cc1c[nH]c2ccccc12)C(=O)NCCCCNC(=O)OC(C)(C)C [SP296P, N-Boc-Tyr(Bn)-Leu-Trp-NH(CH2)4NHBoc] | 59% | 22% |  |  | 2.3
CC(C)(C)OC(=O)N[C@@H](Cc1ccc(OCc2ccccc2)cc1)C(=O)N[C@@H](CC(N)=O)C(=O)N[C@@H](Cc1c[nH]c2ccccc12)C(=O)Nc1ccc(O)cc1 [SP318C, N-Boc-Tyr(Bn)-Asn-Trp-NH(4-OH)Ph] | 66% | 15% |  |  | 1.2
COC(=O)[C@H](Cc1c[nH]c2c(Br)cccc12)NC(=O)[C@H](C)NC(=O)[C@H](Cc1ccc(OCc2ccccc2)c(I)c1)NC(=O)OC(C)(C)C [A248, N-Boc-3-iodo-Tyr(Bn)-Ala-7-bromo-Trp-OMe] | 32% |  |  |  | 
C[C@H](NC(=O)[C@H](Cc1ccc(OCc2ccccc2)cc1)NC(=O)OC(C)(C)C)C(=O)N[C@@H](Cc1c[nH]c2ccccc12)C(=O)Nc1ccc(O)cc1 [SP313P, N-Boc-Tyr(Bn)-Ala-Trp-NH(4-OH)Ph] |  | 26% | 4 µM |  | 
CC(C)C[C@H](NC(=O)[C@H](Cc1ccc(OCc2ccccc2)cc1)NC(=O)OC(C)(C)C)C(=O)N[C@@H](CC1C(=O)Nc2ccccc21)C(=O)Nc1ccccc1 (some centres unmarked) [JV602, Boc-Tyr(Bn)-Leu-Trp[O]—NHPh] | 26% | 22% |  |  | 1.3
CCOC(=O)[C@H](Cc1c[nH]c2c(-c3cc(C[C@H](NC(=O)OC(C)(C)C)C(=O)N[C@@H](CC(C)C)C(=O)OC)ccc3OCc3ccccc3)cccc12)NC(=O)OCc1ccccc1 [SP221] |  |  |  |  | 1.4
C[C@H](NC(=O)[C@H](Cc1ccc(OCc2ccccc2)cc1)NC(=O)OC(C)(C)C)C(=O)N[C@@H](Cc1c[nH]c2ccccc12)C(=O)NCc1ccccc1 [SP304R, N-Boc-Tyr(Bn)-Ala-Trp-NHCCH2Ph] (Boc-Tyr(Bn)-Ala-Trp-NHBn) | 45% |  |  |  | 1.7
CC(C)C[C@H](NC(=O)[C@H](Cc1ccc(OCc2ccccc2)cc1)NC(=O)OC(C)(C)C)C(=O)N[C@@H](Cc1c[nH]c2ccccc12)C(=O)Nc1ccc(O)cc1 [A418P, N-Boc-Tyr(Bn)-Leu-Trp-NH(4-OH)Ph] | 32% |  |  |  | 1.6
CC(C)(C)OC(=O)NCCC[C@H](NC(=O)[C@H](Cc1ccc(OCc2ccccc2)cc1)NC(=O)OC(C)(C)C)C(=O)N[C@@H](CC1C(=O)Nc2ccccc21)C(=O)Nc1ccccc1 (some centres unmarked) [CV12, Boc-Tyr(Bn)-Lys(Boc)-Trp[O]—NHPh] |  |  | 10.4 µM |  | 1.5
CNC(=O)[C@H](Cc1c[nH]c2c(Br)cccc12)NC(=O)[C@H](C)NC(=O)[C@H](Cc1ccc(OCc2ccccc2)c(I)c1)NC(=O)OC(C)(C)C [A254, N-Boc-3-iodo-Tyr(Bn)-Ala-7-bromo-Trp-NHMe] | 60% | 38% |  |  | 
COC(=O)[C@H](Cc1c[nH]c2c(Br)cccc12)NC(=O)[C@H](CC(C)C)NC(=O)[C@H](Cc1ccc(OC)c(I)c1)NC(=O)OC(C)(C)C [A363, N-Boc-3-iodo-Tyr(Me)-Leu-7-bromo-Trp-OMe] | 20% |  |  |  | 1.9
C[C@H](NC(=O)[C@H](Cc1ccc(OCc2ccccc2)cc1)NC(=O)OC(C)(C)C)C(=O)N[C@@H](CC1C(=O)Nc2ccccc21)C(=O)Nc1ccccc1 (some centres unmarked) [CV13, Boc-Tyr(Bn)-Ala-Trp[O]—NHPh] |  | 32% | 3.9 µM |  | 
COC(=O)[C@H](Cc1c[nH]c2c(Br)cccc12)NC(=O)[C@H](C)NC(=O)[C@H](Cc1ccc(OC)c(I)c1)NC(=O)OC(C)(C)C [A385, N-Boc-3-iodo-Tyr(Me)-Ala-7-bromo-Trp-OMe] | 38% | 28% |  |  | 
CCOC(=O)[C@H](Cc1c[nH]c2c(Br)cccc12)NC(=O)[C@H](CC(C)C)NC(=O)[C@H](Cc1ccc(OC)c(I)c1)NC(=O)OC(C)(C)C [A340, N-Boc-3-iodo-Tyr(Me)-Leu-7-bromo-Trp-OEt] | 17% |  |  |  | 
COC(=O)[C@H](Cc1c[nH]c2c(Br)cccc12)NC(=O)[C@H](CC(C)C)NC(=O)[C@H](Cc1ccc(OCc2ccccc2)c(I)c1)NC(=O)OC(C)(C)C [A268, N-Boc-3-iodo-Tyr(Bn)-Leu-7-bromo-Trp-OMe] |  |  |  |  | 2
CC(C)(C)OC(=O)N[C@@H](Cc1ccc(OCc2ccccc2)cc1)C(=O)N[C@@H](CCCN(C(=N)NC(=O)OCc1ccccc1)C(=O)OCc1ccccc1)C(=O)N[C@@H](CC1C(=O)Nc2ccccc21)C(=O)Nc1ccccc1 (some centres unmarked) [CV11, Boc-Tyr(Bn)-Arg(Z)-2-Trp[O]—NHPh] |  |  |  |  | 1.7
CC(C)(C)OC(=O)N[C@@H](Cc1ccc(OCc2ccccc2)cc1)C(=O)N[C@@H](CC(N)=O)C(=O)N[C@@H](Cc1c[nH]c2ccccc12)C(=O)NCc1ccccc1 [A416, N-Boc-Tyr(Bn)-Asn-Trp-NHCH2Ph] (Boc-Tyr(Bn)-Asn-Trp-NHBn) | 35% | 28% |  |  | 2.2
COC(=O)[C@H](Cc1c[nH]c2c(Br)cccc12)NC(=O)CCNC(=O)C(Cc1ccc(OC)c(I)c1)NC(=O)OC(C)(C)C (some centres unmarked) [A493, N-Boc-3-iodo-Tyr(Me)-βAla-7-bromo-Trp-OMe] | 40% | 29% |  |  | 8.2

Now from value to molecule, other results behind:

PA % inhibition (at 100 μM) [2] | inhibition at 100 µM [3] | IC50 [2] | IC50 [3] | SMILES | T-L Activation factor [1]
45% | 62% |  |  | COC(=O)[C@H](Cc1c[nH]c2c(Br)cccc12)NC(=O)[C@H](CC(N)=O)NC(=O)[C@H](Cc1ccc(OCc2ccccc2)c(I)c1)NC(=O)OC(C)(C)C [SP274, N-Boc-3-iodo-Tyr(Bn)-Asn-7-bromo-Trp-OMe] | 
 | 12% |  |  | CC(C)(C)OC(=O)N[C@@H](Cc1ccc(OCc2ccccc2)cc1)C(=O)N[C@@H](CCCN(C(=N)NC(=O)OCc1ccccc1)C(=O)OCc1ccccc1)C(=O)N[C@@H](CC1C(=O)Nc2ccccc21)C(=O)NCc1ccccc1 (some centres unmarked) [NR16, Boc-Tyr(Bn)-Arg(Z)-2-Trp[O]—NHCH2Ph] | 8.2
81% |  |  | 13.5 µM | COC(=O)[C@H](CC1C(=O)Nc2ccccc21)NC(=O)CNC(=O)[C@H](Cc1ccc(OCc2ccccc2)cc1)NC(=O)OC(C)(C)C (some centres unmarked) [NR38, Boc-Tyr(Bn)-Gly-Trp[O]—OCH3] | 9.8
 |  | 35 µM | 40 µM | COC(=O)[C@H](Cc1c[nH]c2ccccc12)NC(=O)[C@H](C)NC(=O)[C@H](Cc1ccc(O)cc1)NC(=O)OC(C)(C)C [NR40, N-Boc-Tyr-Ala-Trp-OCH3] (Boc-Tyr-Ala-Trp-OMe) | 6
87% |  |  | 2.2 µM | CC(C)(C)OC(=O)N[C@@H](Cc1ccc(OCc2ccccc2)cc1)C(=O)NCC(=O)N[C@@H](CC1C(=O)Nc2ccccc21)C(=O)NCc1ccccc1 (some centres unmarked) [NR15, Boc-Tyr(Bn)-Gly-Trp[O]—NHCH2Ph] | 12.3
39% | 34% |  |  | COC(=O)[C@H](Cc1c[nH]c2ccccc12)NC(=O)[C@H](C)NC(=O)[C@H](Cc1ccc(OCc2ccccc2)cc1)NC(=O)OC(C)(C)C [NR36, N-Boc-Tyr(Bn)-Ala-Trp-OCH3] (Boc-Tyr(Bn)-Ala-Trp-OMe) | 9.8
